Experiments:
[1] = tested on: M2 mutants and wild-type WSN-UdM viruses; conditions: cited from earlier work
[2] = tested on: M2 mutants and wild-type WSN-UdM viruses; format: cell-based, influenza A virus

In the case of `NC12CC3CC(CC(C3)C1)C2` [amantadine], the “concentrations at which the drug selectively inhibits viral replication” value ([1]; cell culture (Appleyard, 1977)) is listed as 0.1 to 5 µM, the “concentrations of nonspecific action (increase in pH of endosomes)” value ([1]; cell culture (Daniels et al., 1985)) is listed as greater than 50 μM and the “effect on yield and plaque size of wild-type WSN-UdM virus” value [2] is listed as “markedly reduced”.

From US10119124B2 (priority 2007, dated 2018)
